Measurements taken from patent US9567636B2, “Use of HLA-B*1301 allele” (Shandong Provincial Institute of Dermatology and Venereology, priority 2012, dated 2017).
Where two headings read alike, the source gives them in different places.

Key:
[1] = test system: HLA-B*1301 allele; conditions: human, in vivo
Description: The 454 sequencing platform (Genome Sequencer FLX system developed by Roche 454 Life Sciences) was employed to conduct HLA sorting on 76 DHS patients in the case samples and 1034 non-DHS patients in the clinical control samples, and the sorting results are shown in Table 1.
The HLA-B*1301 heterozygous carriers were at a risk of DHS of ORhet=61×886/10×144=37.53 (confidence level, 0.95; confidence interval (18.80, 74.94)); the HLA-B*1301 homozygous carriers were at a risk of DHS of ORhom=5×886/10×4=110.75 (confidence level, 0.95; confidence interval (25.85, 474.54)).
A recent review regarding the Asian population deduced that the prevalence rate of DHS was 1.4% (Lorenz, Wozel et al. 2012). Based on this prevalence rate, the positive predictive value was 7.9%, the negative predictive value was 99.8%, the positive likelihood ratio was 6.07, and the negative likelihood ratio was 0.1536, upon calculation. According to the positive likelihood ratio of 6.07, the risk of DHS in individuals with the HLA-B*1301 will be raised to 7.9%; and according to the negative likelihood ratio of 0.1536, the incidence of DHS in individuals […] will be decreased from 1.4% to 0.2%.

[2] = test system: HLA-B*1301 allele; conditions: human, in vivo; remark: listed apart in the source
Description: To further verify the correlation of HLA-B*1301 allele, the 454 sequencing platform (Genome Sequencer FLX system developed by Roche 454 Life Sciences) was employed to conduct HLA sorting on another 37 DHS patients in the case samples and another 201 non-DHS patients in the clinical control samples (randomizedly selected from a total of 1089 validation controls). Wherein, PCR amplification was conducted on genomic DNA isolated from the peripheral blood of the samples for the HLA-B*1301 allele using primer pair 1 and primer pair 2, respectively. The primer pair 1 consists of the single-stranded DNA as set forth in SEQ ID No.1 and SEQ ID No.2; and the primer pair 2 consists of the single-stranded DNA as set forth in SEQ ID No.3 and SEQ ID No.4.

[3] = test system: HLA-B*1301 allele; conditions: both, human, in vivo
Description: The samples were peripheral blood taken from human, including case samples, clinical control samples and healthy control samples.
76 Chinese DHS patients (39 for the discovery-phase study, and 37 for the validation-phase study) were included in the study. […] The male-to-female ratio in the patients, aged 38 years old in average, was 1.6:1. […] The diagnosis of DHS was based on the medical history, clinical manifestations and laboratory examinations of the patients.
The clinical control samples of the study included 1034 non-DHS patients (833 for the discovery phase, and 201 for the validation phase).
Genotyping was performed on 39 DHS patients in the case samples and 833 non-DHS patients in the clinical control samples using Illumina-660 chip (Illumina Human 660W-Quad beadchip). A total of 430,276 SNPs from the 39 DHS patients and 833 non-DHS patients were used in data analysis in the discovery phase of Genome-Wide Scan. […]

[4] = both, human, in vivo
Description: 76 Chinese DHS patients (39 for the discovery-phase study, and 37 for the validation-phase study) were included in the study. […] The diagnosis of DHS was based on the medical history, clinical manifestations and laboratory examinations of the patients.

## Nc1ccc(S(=O)(=O)c2ccc(N)cc2)cc1 [DDS, 4,4′-diamino diphenyl sulfone]
[1]
  HLA-B*1301 allele carried by DHS patients: 86.8%
  HLA-B*1301 allele carried by non-DHS patients: 14.3%
  risk of DHS in individuals with the HLA-B*1301: 7.9%
[2]
  OR of DHS for HLA-B*1301: 23.54
[3]
  OR of DHS for HLA-B*1301: 21.67
[4]
  patients abnormally increased in the level of serum bilirubin: 35 patients
  patients decreased in the level of hemoglobin: 37 patients
  patients significantly increased in the level of alanine transaminase: 58 patients
  patients significantly increased in the level of aspartate aminotransferase: 49 patients
  skin lesion: exfoliative dermatitis: 38.5%
  skin lesion: maculopapule: 57.7%
  skin lesion: scarlatiniform erythema: 7.7%
  system involvement: abnormal liver function: 74.4%
  system involvement: fever: 83.1%
  system involvement: swollen lymph glands: 34.6%
[4]; po
  skin lesion: oral erosion: 1.3%
